Measurements taken from PubChem BioAssay AID256 (DTP/NCI, 2004).
Where “and” joins values, the source holds several entries; their conditions need not be identical. Identical values can stand only once. Inconclusive results and toxic doses are left out. The calls were made as follows: active = survival T/C of 150% or more; inactive = T/C below 125% in these data.

Tested on: CD2F1 mice, L1210 leukemia ip, survival T/C
Test: NCI In Vivo Anticancer Drug Screen. Data for tumor model L1210 Leukemia (intraperitoneal) in CD2F1 (CDF1) mice
Conditions: higher = longer survival
How it was run: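 Mice carrying a transplanted tumor received test compound or vehicle alone. The value is the measurement in the treated group divided by that in the vehicle-treated control group.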

[1] = endpoint: mean survival time, dose: 100.0 mg/kg/injection, schedule: Q01DX009 (ip), vehicle: Klucel (hydroxypropylcellulose) (HPC)
[2] = endpoint: mean survival time, dose: 200.0 mg/kg/injection, schedule: Q01DX009 (ip), vehicle: Klucel (hydroxypropylcellulose) (HPC)
[3] = endpoint: mean survival time, dose: 25.0 mg/kg/injection, schedule: Q01DX009 (ip), vehicle: saline
[4] = endpoint: mean survival time, dose: 50.0 mg/kg/injection, schedule: Q01DX009 (ip), vehicle: saline
[5] = endpoint: mean survival time, dose: 100.0 mg/kg/injection, schedule: Q01DX009 (ip), vehicle: saline with Tween-80
[6] = endpoint: mean survival time, dose: 100.0 mg/kg/injection, schedule: Q01DX009 (ip), vehicle: saline
[7] = endpoint: mean survival time, dose: 100.0 mg/kg/injection, schedule: Q04DX003 (ip), vehicle: saline
[8] = endpoint: mean survival time, dose: 200.0 mg/kg/injection, schedule: Q01DX009 (ip), vehicle: saline with Tween-80
[9] = endpoint: mean survival time, dose: 200.0 mg/kg/injection, schedule: Q04DX003 (ip), vehicle: saline
[10] = endpoint: mean survival time, dose: 400.0 mg/kg/injection, schedule: Q01DX009 (ip), vehicle: saline with Tween-80
[11] = endpoint: mean survival time, dose: 100.0 mg/kg/injection, schedule: Q01DX001 (ip), vehicle: saline with Tween-80
[12] = endpoint: mean survival time, dose: 200.0 mg/kg/injection, schedule: Q01DX001 (ip), vehicle: saline with Tween-80
[13] = endpoint: mean survival time, dose: 100.0 mg/kg/injection, schedule: Q04DX002 (ip), vehicle: saline
[14] = endpoint: mean survival time, dose: 200.0 mg/kg/injection, schedule: Q04DX002 (ip), vehicle: saline
[15] = endpoint: mean survival time, dose: 50.0 mg/kg/injection, schedule: Q04DX002 (ip), vehicle: saline
[16] = endpoint: mean survival time, dose: 6.25 mg/kg/injection, schedule: Q04DX002 (ip), vehicle: saline
[17] = endpoint: mean survival time, dose: 12.5 mg/kg/injection, schedule: Q04DX002 (ip), vehicle: saline
[18] = endpoint: mean survival time, dose: 25.0 mg/kg/injection, schedule: Q04DX002 (ip), vehicle: saline
[19] = endpoint: mean survival time, dose: 200.0 mg/kg/injection, schedule: Q01DX009 (ip), vehicle: saline
[20] = endpoint: mean survival time, dose: 400.0 mg/kg/injection, schedule: Q01DX009 (ip), vehicle: saline
[21] = endpoint: mean survival time, dose: 100.0 mg/kg/injection, schedule: Q04DX003 (ip), vehicle: saline with Tween-80
[22] = endpoint: mean survival time, dose: 200.0 mg/kg/injection, schedule: Q04DX003 (ip), vehicle: saline with Tween-80
[23] = endpoint: mean survival time, dose: 400.0 mg/kg/injection, schedule: Q04DX003 (ip), vehicle: saline with Tween-80
[24] = endpoint: mean survival time, dose: 100.0 mg/kg/injection, schedule: Q01DX001 (ip), vehicle: saline
[25] = endpoint: mean survival time, dose: 200.0 mg/kg/injection, schedule: Q01DX001 (ip), vehicle: saline
[26] = endpoint: mean survival time, dose: 400.0 mg/kg/injection, schedule: Q01DX001 (ip), vehicle: saline
[27] = endpoint: mean survival time, dose: 12.5 mg/kg/injection, schedule: Q01DX009 (ip), vehicle: saline

Measured: T/C

CC(=O)/C(=C\c1ccc(Cl)c(Cl)c1)C(=O)CCN(C)C
inactive: endpoint: median survival time, dose: 12.5 mg/kg/injection, schedule: Q01DX009 (ip), vehicle: saline 113 % of control and 98 % of control | endpoint: median survival time, dose: 25.0 mg/kg/injection, schedule: Q01DX009 (ip), vehicle: saline 95 % of control and 104 % of control and 109 % of control | endpoint: median survival time, dose: 50.0 mg/kg/injection, schedule: Q01DX009 (ip), vehicle: saline 113 % of control and 115 % of control and 110 % of control | endpoint: median survival time, dose: 100.0 mg/kg/injection, schedule: Q01DX009 (ip), vehicle: saline 97 % of control and 105 % of control

CCOC(=O)/C=C(/Nc1ccc(S(=O)(=O)F)cc1)c1ccccc1
inactive: [1] 100 % of control | [2] 100 % of control | endpoint: mean survival time, dose: 400.0 mg/kg/injection, schedule: Q01DX009 (ip), vehicle: Klucel (hydroxypropylcellulose) (HPC) 97 % of control

OCC(O)C1OC(c2ccccc2)OC(CO)C1O (centres undefined)
inactive: endpoint: mean survival time, dose: 100.0 mg/kg/injection, schedule: Q04DX003 (ip), vehicle: saline + alcohol 106 % of control | endpoint: mean survival time, dose: 200.0 mg/kg/injection, schedule: Q04DX003 (ip), vehicle: saline + alcohol 100 % of control | endpoint: mean survival time, dose: 400.0 mg/kg/injection, schedule: Q04DX003 (ip), vehicle: saline + alcohol 95 % of control

C=CC[As](=O)(O)CCC
inactive: [3] 100 % of control | [4] 98 % of control | [5] 114 % of control | [6] 97 % of control

C=C(C)Cc1cc(C(CC)C(CC)c2ccc(O)c(CC(=C)C)c2)ccc1O (centres undefined)
inactive: [5] 100 % of control | [7] 96 % of control | [8] 98 % of control | [9] 93 % of control | [10] 100 % of control | endpoint: mean survival time, dose: 400.0 mg/kg/injection, schedule: Q04DX003 (ip), vehicle: saline 89 % of control

CCCCCCCCCCCCC/C=N/NC(=O)c1ccc[n+](C)c1
inactive: [11] 93 % of control | [12] 98 % of control

C=C1C(O)C2(O)OCC34C(CC5C(C)=CC(=O)C(O)C5(C)C23)OC(=O)C(OC(=O)C/C=C(\C)CCCCC)C14 (centres undefined)
inactive: endpoint: median survival time, dose: 1.0 mg/kg/injection, schedule: Q01DX005 (ip), vehicle: saline + alcohol 109 % of control | endpoint: median survival time, dose: 2.0 mg/kg/injection, schedule: Q01DX005 (ip), vehicle: saline + alcohol 118 % of control | endpoint: median survival time, dose: 8.0 mg/kg/injection, schedule: Q01DX005 (ip), vehicle: saline + alcohol 121 % of control

CC(=O)Nc1ccc2cc3ccc(NC(C)=O)cc3nc2c1
inactive: [13] 98 % of control | [14] 98 % of control | endpoint: mean survival time, dose: 400.0 mg/kg/injection, schedule: Q04DX002 (ip), vehicle: saline 98 % of control

C=C1C(=O)OC2/C=C(\C)CC(O)/C=C(/CO)CC(OC(=O)/C(C)=C/C)C12 (centres undefined)
inactive: endpoint: median survival time, dose: 15.0 mg/kg/injection, schedule: Q01DX009 (ip), vehicle: saline 103 % of control | endpoint: median survival time, dose: 30.0 mg/kg/injection, schedule: Q01DX009 (ip), vehicle: saline 108 % of control | endpoint: median survival time, dose: 60.0 mg/kg/injection, schedule: Q01DX009 (ip), vehicle: saline 105 % of control | endpoint: median survival time, dose: 120.0 mg/kg/injection, schedule: Q01DX009 (ip), vehicle: saline 95 % of control

CC12CCC(O)CC1=CCC1C2CCC2(C)C(O)CCC12 (centres undefined)
inactive: [11] 97 % of control | [12] 90 % of control | endpoint: mean survival time, dose: 400.0 mg/kg/injection, schedule: Q01DX001 (ip), vehicle: saline with Tween-80 91 % of control

O=S(=O)(O)c1ccc(/C2=c3\cc/c([n-]3)=C(\c3ccc(S(=O)(=O)O)cc3)c3ccc([n-]3)/C(c3ccc(S(=O)(=O)O)cc3)=c3/cc/c([n-]3)=C(\c3ccc(S(=O)(=O)O)cc3)c3ccc2[n-]3)cc1.[Co]
inactive: [15] 104 % of control | [13] 101 % of control | [14] 101 % of control

CC(C)CC(C)OP(=S)(S)OC(C)CC(C)C.[Cd] (centres undefined)
inactive: [16] 93 % of control | [17] 104 % of control | endpoint: mean survival time, dose: 25.0 mg/kg/injection, schedule: Q04DX002 (ip), vehicle: saline with Tween-80 100 % of control | [18] 93 % of control | endpoint: mean survival time, dose: 50.0 mg/kg/injection, schedule: Q04DX002 (ip), vehicle: saline with Tween-80 88 % of control

NC(CSC1(c2cccc3ccccc23)c2ccccc2-c2ccccc21)C(=O)O (centres undefined)
inactive: [3] 94 % of control | [4] 96 % of control | [6] 96 % of control | [19] 94 % of control | [20] 94 % of control

O=C(O)/C=C/c1cccs1
inactive: endpoint: mean survival time, dose: 50.0 mg/kg/injection, schedule: Q01DX009 (ip), vehicle: Klucel (hydroxypropylcellulose) (HPC) 101 % of control | [1] 101 % of control | [2] 96 % of control

CNC(=O)Oc1cccc(NC(=O)OCCOC)c1
inactive: [21] 99 % of control | [22] 99 % of control | [23] 92 % of control

CC[N+](C)(CC)Cc1cc(C(C)=O)c(C)o1
inactive: [16] 98 % of control | [17] 98 % of control | [18] 102 % of control | [15] 91 % of control | endpoint: median survival time, dose: 50.0 mg/kg/injection, schedule: Q04DX002 (ip), vehicle: saline 100 % of control

Cc1ccc(-c2noc(C)n2)cc1
inactive: [24] 103 % of control | [25] 105 % of control | [26] 103 % of control

O=P(CCCCl)(OCCCCl)OCCCCl
inactive: [6] 100 % of control | [19] 101 % of control | [20] 100 % of control

CC1(C)N=C(N)N=C(N)N1c1cccc(/C=C(\C#N)c2ccccc2)c1
inactive: endpoint: mean survival time, dose: 100.0 mg/kg/injection, schedule: Q04DX002 (ip), vehicle: Klucel (hydroxypropylcellulose) (HPC) 98 % of control | endpoint: mean survival time, dose: 200.0 mg/kg/injection, schedule: Q04DX002 (ip), vehicle: Klucel (hydroxypropylcellulose) (HPC) 95 % of control

O=C1COC(C(Cl)(Cl)Cl)CN1 (centres undefined)
inactive: [5] 98 % of control | [21] 102 % of control | [8] 95 % of control | [22] 100 % of control | [10] 102 % of control | [23] 104 % of control

COc1cc2ccc3c(c2cc1OC)C(=O)CNC3C (centres undefined)
inactive: endpoint: mean survival time, dose: 3.13 mg/kg/injection, schedule: Q01DX009 (ip), vehicle: saline 105 % of control | endpoint: mean survival time, dose: 6.25 mg/kg/injection, schedule: Q01DX009 (ip), vehicle: saline 98 % of control | [27] 104 % of control

Cc1ccccc1S(=O)(=O)/C(=C(/I)c1ccccc1)c1ccccc1
inactive: endpoint: mean survival time, dose: 50.0 mg/kg/injection, schedule: Q04DX003 (ip), vehicle: saline 94 % of control | [7] 102 % of control | [9] 98 % of control

c1cc2c(c(NC3=NCCN3)c1)CCCC2
inactive: endpoint: mean survival time, dose: 12.5 mg/kg/injection, schedule: Q01DX009 (ip), vehicle: saline with Tween-80 96 % of control | endpoint: mean survival time, dose: 25.0 mg/kg/injection, schedule: Q01DX009 (ip), vehicle: saline with Tween-80 100 % of control | endpoint: mean survival time, dose: 50.0 mg/kg/injection, schedule: Q01DX009 (ip), vehicle: saline with Tween-80 111 % of control

C=CCc1cn(C2CC(O)C(CO)O2)c(=O)[nH]c1=O (centres undefined)
inactive: [27] 94 % of control and 104 % of control | [3] 101 % of control and 107 % of control | [4] 95 % of control and 108 % of control | [6] 103 % of control and 110 % of control | [19] 104 % of control and 106 % of control | [20] 118 % of control and 111 % of control (2×)

S=C1NCc2ccccc2N1
inactive: endpoint: mean survival time, dose: 25.0 mg/kg/injection, schedule: Q01DX001 (ip), vehicle: Klucel (hydroxypropylcellulose) (HPC) 101 % of control | endpoint: mean survival time, dose: 50.0 mg/kg/injection, schedule: Q01DX001 (ip), vehicle: Klucel (hydroxypropylcellulose) (HPC) 101 % of control | endpoint: mean survival time, dose: 100.0 mg/kg/injection, schedule: Q01DX001 (ip), vehicle: Klucel (hydroxypropylcellulose) (HPC) 112 % of control

C=CCOC(=O)Nc1ccc(S(=O)(=O)N(CCC)CCC)cc1
inactive: [24] 103 % of control | [25] 101 % of control | [26] 89 % of control
